According to US8288375B2, “Fungicidal bicyclic pyrazoles” (E.I. du Pont de Nemours and Company, priority 2007, dated 2012):
Marks after values point to notes of the source that are not given here.

Assays:
Type in all cases: in vivo
[1] = system: Erysiphe graminis f. sp. tritici; assay: Test A: wheat powdery mildew, test suspension sprayed on wheat seedlings, disease rating; settings: 200 ppm test suspension, 100 = 100% disease control, 0 = no control
[2] = system: Puccinia recondite f sp. tritici; assay: Test B: wheat leaf rust, test suspension sprayed on wheat seedlings, disease rating; settings: 40 ppm test suspension (*);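 also: 200 ppm unless marked * meaning 40 ppm or ** meaning 10 ppm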
[3] = system: Fusarium graminearum; assay: whole plant or invertebrate; settings: for Test C disease control rating: 40 ppm test suspension (*)
[4] = system: Septoria nodorum; assay: Test D: wheat glume blotch, test suspension sprayed on wheat seedlings, disease rating; settings: 200 ppm test suspension
[5] = system: Septoria tritici; assay: Test E: wheat leaf blotch, test suspension sprayed on wheat seedlings, disease rating; settings: for Test E disease control rating: 40 ppm test suspension (*);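 as to all read-outs here: 200 ppm unless marked * meaning 40 ppm or ** meaning 10 ppm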
[6] = system: Colletotrichum orbiculare; assay: Test F: cucumber Colletotrichum anthracnose, test suspension sprayed on cucumber seedlings, disease rating; settings: for Test F disease control rating: 200 ppm test suspension
[7] = system: Alternaria solani; assay: Test G: tomato early blight, test suspension sprayed on seedlings, disease rating; settings: for Test G disease control rating: 40 ppm test suspension (*);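 as to all read-outs here: 200 ppm unless marked * meaning 40 ppm or ** meaning 10 ppm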
[8] = system: Phytophthora infestans; assay: whole plant or invertebrate; settings: for Test J disease control rating: 40 ppm test suspension (*)
[9] = system: Pythium aphanidermatum; assay: Test L: bluegrass pythium blight, test suspension sprayed on bluegrass seedlings, disease rating; settings: for Test L disease control rating: 40 ppm test suspension (*);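 as to all read-outs here: 200 ppm unless marked * meaning 40 ppm or ** meaning 10 ppm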
[10] = system: Botrytis cinerea; assay: Test H: tomato Botrytis, test suspension sprayed on tomato seedlings, disease rating; settings: 200 ppm test suspension
[11] = system: Rhizoctonia oryzae; assay: Test I: turf brown patch, test suspension sprayed on creeping bent grass seedlings, disease rating; settings: 200 ppm test suspension

Structure (SMILES)	pest or weed control at 200 ppm ([1]; Blumeria graminis, 192 h)	pest or weed control at 40 ppm ([2]; Puccinia, 192 h)	pest or weed control at 40 ppm ([3]; Fusarium graminearum, in Triticum aestivum, 192 h, read-out: Test C disease control rating)	pest or weed control at 200 ppm ([4]; Parastagonospora nodorum, 216 h)	pest or weed control at 200 ppm ([5]; Zymoseptoria tritici, 504 h, 200 ppm test suspension)	pest or weed control at 10 ppm ([6]; Colletotrichum orbiculare, 144 h, 10 ppm test suspension (**))	pest or weed control at 10 ppm ([7]; Alternaria solani, 168 h, 10 ppm test suspension (**))	pest or weed control at 200 ppm ([8]; Phytophthora infestans, in Solanum lycopersicum, 120 h, read-out: Test J disease control rating)	pest or weed control at 200 ppm ([9]; Pythium aphanidermatum, 120 h, 200 ppm test suspension)	Test A disease control rating [1]	Test B disease control rating [2]	Test C disease control rating [3]	Test D disease control rating [4]	Test E disease control rating [5]	Test F disease control rating [6]	Test G disease control rating [7]	Test H disease control rating [10]	Test J disease control rating [8]	Test L disease control rating [9]	Test I disease control rating [11]
c1ccc(-c2nn3c(c2-c2ccnc(NC4CC4)n2)CCCC3)cc1 [Compound 27, N-cyclopropyl-4-(4,5,6,7-tetrahydro-2-phenylpyrazolo[1,5-a]pyridin-3-yl)-2-pyrimidinamine]	96%	95%	99%	98%	97%	66%	95%	97%	98%	–	–	–	–	–	–	–	–	–	–	–
CC(C)Nc1nccc(-c2c(-c3ccc(F)cc3)nn3c2COCC3)n1.Cl [compound 128]	–	–	–	–	–	–	–	–	–	0%	96* %	99* %	99%	94* %	99%	99* %	89%	100* %	100* %	–
Cc1ccc(CNc2nccc(-c3c(-c4ccc(F)cc4)nn4c3CCCC4)n2)o1 [compound 79]	–	–	–	–	–	–	–	–	–	76%	–	99* %	69%	93* %	0%	0* %	0%	0* %	0* %	0%
CC(=O)N1CCCc2c(-c3ccnc(NC4CCOCC4)n3)c(-c3ccc(F)cc3)nn21 [Compound 139]	–	–	–	–	–	–	–	–	–	73%	90* %	95* %	99%	29* %	–	99* %	0%	93* %	100* %	40%
Fc1ccc(-c2nn3c(c2-c2ccnc(NCC4CCOCC4)n2)CCCC3)cc1 [compound 80]	–	–	–	–	–	–	–	–	–	82%	–	98* %	82%	93* %	0%	68* %	44%	33* %	0* %	0%
CC(CN1C(=O)c2ccccc2C1=O)Nc1nccc(-c2c(-c3ccc(F)cc3)nn3c2CCCC3)n1 (stereo not shown) [compound 71]	–	–	–	–	–	–	–	–	–	0%	0* %	0* %	64%	33* %	0%	0* %	0%	9* %	97* %	–
CC(CN(C)C)Nc1nccc(-c2c(-c3ccc(F)cc3)nn3c2CCCC3)n1 (stereo not shown) [compound 77]	–	–	–	–	–	–	–	–	–	82%	–	92* %	49%	0* %	0%	0* %	29%	40* %	0* %	0%
Fc1ccc(-c2nn3c(c2-c2ccnc(NC4CCOCC4)n2)COCC3)cc1 [compound 129]	–	–	–	–	–	–	–	–	–	0%	98* %	100* %	99%	81* %	–	95* %	84%	95* %	100* %	53%
